Measurements taken from patent US11312712B2, “Azabenzimidazoles and their use as AMPA receptor modulators” (Janssen Pharmaceutica NV, priority 2015, dated 2022).

Molecular target: GluA1o-γ8 (GRIA1o-CACNG8 fusion construct) (Homo sapiens (Human), UniProt P42261+Q8WXS5)
Experiment: Calcium flux assay (FLIPR), inhibition of TARP γ8 dependent AMPA receptor activity
Type: cell-based
Settings: GluA1o-γ8 (GRIA1o-CACNG8 fusion) in HEK293 cells, calcium flux after 15 μM glutamate
Outline: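 Glutamate (15 μM) was added to a stable HEK293 line carrying the GluA1o–γ8 fusion, which had been preincubated with compound and calcium dye in HEPES buffer, pH 7.4. Normalized FLIPR fluorescence (no compound vs 10 μM CP465022) was fitted with four parameters; pIC50 is the midpoint's negative log.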

Sequence of GluA1o-γ8 (GRIA1o-CACNG8 fusion construct) (P42261 other isoform, or with tags, fused parts or gaps): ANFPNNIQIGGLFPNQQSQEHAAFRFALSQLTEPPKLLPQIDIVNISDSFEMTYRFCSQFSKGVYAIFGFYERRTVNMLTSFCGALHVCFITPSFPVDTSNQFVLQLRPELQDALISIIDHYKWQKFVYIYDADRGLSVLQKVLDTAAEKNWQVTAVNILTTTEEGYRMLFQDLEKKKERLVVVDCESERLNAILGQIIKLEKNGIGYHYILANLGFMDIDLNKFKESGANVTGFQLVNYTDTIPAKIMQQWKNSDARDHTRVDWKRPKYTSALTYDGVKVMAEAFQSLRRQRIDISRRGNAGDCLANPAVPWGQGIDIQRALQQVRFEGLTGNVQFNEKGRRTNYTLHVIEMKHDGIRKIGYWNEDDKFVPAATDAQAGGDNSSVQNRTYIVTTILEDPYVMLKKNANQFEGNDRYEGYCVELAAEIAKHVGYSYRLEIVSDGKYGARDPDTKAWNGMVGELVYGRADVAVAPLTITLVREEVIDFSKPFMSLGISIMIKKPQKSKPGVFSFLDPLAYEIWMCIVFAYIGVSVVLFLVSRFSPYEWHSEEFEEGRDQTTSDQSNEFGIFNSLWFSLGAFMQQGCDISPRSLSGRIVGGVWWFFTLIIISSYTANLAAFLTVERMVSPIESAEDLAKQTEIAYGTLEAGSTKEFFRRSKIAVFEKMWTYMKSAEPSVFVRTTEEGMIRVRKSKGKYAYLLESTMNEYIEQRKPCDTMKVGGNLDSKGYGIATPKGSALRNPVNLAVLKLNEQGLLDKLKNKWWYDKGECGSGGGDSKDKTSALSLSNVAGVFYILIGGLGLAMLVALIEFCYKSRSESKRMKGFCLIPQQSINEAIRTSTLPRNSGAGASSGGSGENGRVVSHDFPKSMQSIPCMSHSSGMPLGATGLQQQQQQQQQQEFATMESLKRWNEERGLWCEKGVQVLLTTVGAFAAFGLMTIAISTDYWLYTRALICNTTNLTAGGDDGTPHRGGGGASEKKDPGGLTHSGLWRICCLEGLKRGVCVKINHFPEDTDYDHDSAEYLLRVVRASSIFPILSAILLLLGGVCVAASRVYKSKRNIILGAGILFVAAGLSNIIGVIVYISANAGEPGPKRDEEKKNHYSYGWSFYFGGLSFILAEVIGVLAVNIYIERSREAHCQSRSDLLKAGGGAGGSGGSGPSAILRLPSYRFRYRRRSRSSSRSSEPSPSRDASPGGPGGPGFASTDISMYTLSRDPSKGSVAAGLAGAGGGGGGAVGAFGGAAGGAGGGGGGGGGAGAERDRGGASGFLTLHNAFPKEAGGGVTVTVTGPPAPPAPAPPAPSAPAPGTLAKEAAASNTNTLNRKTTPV

Row | IC50 | Structure (SMILES)
1 | 2 nM | Cc1cc(-n2ccc3ccc(C(F)(F)F)nc32)cc2cn[nH]c12 [Example 377, 1-(7-Methyl-1H-indazol-5-yl)-6-(trifluoromethyl)pyrrolo[2,3-b]pyridine]
2 | 100 nM | Cc1ccc2ccn(-c3cc(C)c4c(c3)CC(=O)N4)c2n1 [Example 378, 7-Methyl-5-(6-methylpyrrolo[2,3-b]pyridin-1-yl)indolin-2-one]
3 | 100 nM | Cc1ccc2ccn(-c3cc(F)c4c(c3)CC(=O)N4)c2n1 [Example 379, 7-Fluoro-5-(6-methylpyrrolo[2,3-b]pyridin-1-yl)indolin-2-one]
4 | 1 nM | Cc1ccc2cc(C3CC3)n(-c3ccc4c(c3)CC(=O)N4)c2n1 [Example 380, 5-(2-Cyclopropyl-6-methyl-pyrrolo[2,3-b]pyridin-1-yl)indolin-2-one]
5 | 5.01 nM | Cc1ccc2cc(-c3ccc(F)cc3)n(-c3ccc4[nH]ccc4c3)c2n1 [Example 381, 2-(4-Fluorophenyl)-1-(1H-indol-5-yl)-6-methyl-pyrrolo[2,3-b]pyridine]
6 | 0.398 nM | Cc1ccc2cc(-c3ccc(F)cc3)n(-c3ccc4c(c3)CC(=O)N4)c2n1 [Example 382, 5-[2-(4-Fluorophenyl)-6-methyl-pyrrolo[2,3-b]pyridin-1-yl]indolin-2-one]
7 | 0.1 nM | O=C1Cc2cc(-n3c(-c4ccc(F)cc4)cc4ccc(Cl)nc43)ccc2N1 [Example 383, 5-[6-Chloro-2-(4-fluorophenyl)pyrrolo[2,3-b]pyridin-1-yl]indolin-2-one]
8 | 5.01 nM | COc1ccc2cc(-c3ccc(F)cc3)n(-c3ccc4c(c3)CC(=O)N4)c2n1 [Example 384, 5-[2-(4-Fluorophenyl)-6-methoxy-pyrrolo[2,3-b]pyridin-1-yl]indolin-2-one]
9 | 15.8 nM | Fc1ccc(-c2cc3ccc(Cl)nc3n2-c2ccc3[nH]ccc3c2)cc1 [Example 385, 6-Chloro-2-(4-fluorophenyl)-1-(1H-indol-5-yl)pyrrolo[2,3-b]pyridine]
10 | 6.31 nM | Fc1ccc(-c2cc3ccc(C(F)(F)F)nc3n2-c2ccc3[nH]ccc3c2)cc1 [Example 387, 2-(4-Fluorophenyl)-1-(1H-indol-5-yl)-6-(trifluoromethyl)pyrrolo[2,3-b]pyridine]
11 | 7.94 nM | FC(F)(F)c1ccc2cc(-c3ccccc3)n(-c3ccc4[nH]ccc4c3)c2n1 [Example 388, 1-(1H-Indol-5-yl)-2-phenyl-6-(trifluoromethyl)pyrrolo[2,3-b]pyridine]
12 | 0.0631 nM | O=C1Cc2cc(-n3c(C4CC4)c(Br)c4ccc(C(F)(F)F)nc43)ccc2N1 [Example 389, 5-[3-Bromo-2-cyclopropyl-6-(trifluoromethyl)pyrrolo[2,3-b]pyridin-1-yl]indolin-2-one]
13 | 1.26 nM | Cc1ccc2cc(-c3ccccc3)n(-c3cnc4[nH]ccc4c3)c2n1 [Example 390, 6-Methyl-2-phenyl-1-(1H-pyrrolo[2,3-b]pyridin-5-yl)pyrrolo[2,3-b]pyridine]
14 | 0.631 nM | CC(C)c1cc2ccc(C(F)(F)F)nc2n1-c1cnc2[nH]ccc2c1 [Example 391, 2-Isopropyl-1-(1H-pyrrolo[2,3-b]pyridin-5-yl)-6-(trifluoromethyl)pyrrolo[2,3-b]pyridine]
15 | 3.16 nM | Cc1ccc2c(Br)c(-c3ccccc3)n(-c3cnc4c(c3)CC(=O)N4)c2n1 [Example 393, 5-(3-Bromo-6-methyl-2-phenyl-pyrrolo[2,3-b]pyridin-1-yl)-1,3-dihydropyrrolo[2,3-b]pyridin-2-one]
16 | 31.6 nM | CC(C)c1c(Br)c2ccc(C(F)(F)F)nc2n1-c1cnc2c(c1)CC(=O)N2 [Example 394, 5-[3-Bromo-2-isopropyl-6-(trifluoromethyl)pyrrolo[2,3-b]pyridin-1-yl]-1,3-dihydropyrrolo[2,3-b]pyridin-2-one]
17 | 25.1 nM | Cc1c(Br)c2ccc(C(F)(F)F)nc2n1-c1cnc2c(c1)CC(=O)N2 [Example 395, 5-[3-Bromo-2-methyl-6-(trifluoromethyl)pyrrolo[2,3-b]pyridin-1-yl]-1,3-dihydropyrrolo[2,3-b]pyridin-2-one]
18 | 0.0126 nM | CC(C)c1cc2ccc(C(F)(F)F)nc2n1-c1ccc2c(c1)CC(=O)N2 [Example 396, 5-[2-Isopropyl-6-(trifluoromethyl)pyrrolo[2,3-b]pyridin-1-yl]indolin-2-one]
19 | 0.0398 nM | O=C1Cc2cc(-n3c(-c4ccccc4)cc4ccc(C(F)(F)F)nc43)ccc2N1 [Example 397, 5-[2-Phenyl-6-(trifluoromethyl)pyrrolo[2,3-b]pyridin-1-yl]indolin-2-one]

Row | IC50 | Structure (SMILES)
20 | 0.0631 nM | O=C1Cc2cc(-n3c(-c4ccc(F)cc4)cc4ccc(C(F)(F)F)nc43)ccc2N1 [Example 398, 5-[2-(4-Fluorophenyl)-6-(trifluoromethyl)pyrrolo[2,3-b]pyridin-1-yl]indolin-2-one]
21 | 0.0251 nM | O=C1Cc2cc(-n3c(C4CC4)cc4ccc(C(F)(F)F)nc43)ccc2N1 [Example 399, 5-[2-Cyclopropyl-6-(trifluoromethyl)pyrrolo[2,3-b]pyridin-1-yl]indolin-2-one]
22 | 0.251 nM | Cc1ccc2cc(-c3ccccc3)n(-c3cnc4c(c3)CC(=O)N4)c2n1 [Example 400, 5-(6-Methyl-2-phenyl-pyrrolo[2,3-b]pyridin-1-yl)-1,3-dihydropyrrolo[2,3-b]pyridin-2-one]
23 | 0.0316 nM | CC(C)c1cc2ccc(C(F)(F)F)nc2n1-c1cnc2c(c1)CC(=O)N2 [Example 401, 5-[2-Isopropyl-6-(trifluoromethyl)pyrrolo[2,3-b]pyridin-1-yl]-1,3-dihydropyrrolo[2,3-b]pyridin-2-one]
24 | 10 nM | Cc1cc2ccc(C(F)(F)F)nc2n1-c1cnc2c(c1)CC(=O)N2 [Example 402, 5-[2-Methyl-6-(trifluoromethyl)pyrrolo[2,3-b]pyridin-1-yl]-1,3-dihydropyrrolo[2,3-b]pyridin-2-one]
25 | 1.26 nM | CCc1cc2cccnc2n1-c1cc(C)c2c(c1)CC(=O)N2 [Example 403, 5-(2-Ethylpyrrolo[2,3-b]pyridin-1-yl)-7-methyl-indolin-2-one]
26 | 1.26 nM | Cc1ccc2nc(C(C)(F)F)n(-c3cc(Cl)c4[nH]ncc4c3)c2n1 [Example 410, 3-(7-Chloro-1H-indazol-5-yl)-2-(1,1-difluoroethyl)-5-methyl-3H-imidazo[4,5-b]pyridine]
27 | 0.158 nM | FC(F)(F)c1ccc2nc(CC3CC3)n(-c3cc(Cl)c4[nH]ncc4c3)c2n1 [Example 411, 3-(7-Chloro-1H-indazol-5-yl)-2-(cyclopropylmethyl)-5-(trifluoromethyl)-3H-imidazo[4,5-b]pyridine]
28 | 0.126 nM | CCCc1nc2ccc(C(F)(F)F)nc2n1-c1cc(Cl)c2[nH]ncc2c1 [Example 412, 3-(7-Chloro-1H-indazol-5-yl)-2-propyl-5-(trifluoromethyl)-3H-imidazo[4,5-b]pyridine]
29 | 0.398 nM | COCc1nc2ccc(C(F)(F)F)nc2n1-c1cc(Cl)c2[nH]ncc2c1 [Example 413, 3-(7-Chloro-1H-indazol-5-yl)-2-(methoxymethyl)-5-(trifluoromethyl)-3H-imidazo[4,5-b]pyridine]
30 | 0.126 nM | CC(C)Cc1nc2ccc(C(F)(F)F)nc2n1-c1cc(Cl)c2[nH]ncc2c1 [Example 414, 3-(7-Chloro-1H-indazol-5-yl)-2-isobutyl-5-(trifluoromethyl)-3H-imidazo[4,5-b]pyridine]
31 | 0.0501 nM | COc1ccc2nc(C(F)(F)F)n(-c3cc(Cl)c4[nH]ncc4c3)c2n1 [Example 415, 3-(7-Chloro-1H-indazol-5-yl)-5-methoxy-2-(trifluoromethyl)-3H-imidazo[4,5-b]pyridine]
32 | 0.501 nM | FC(F)(F)Cc1nc2ccc(C(F)(F)F)nc2n1-c1cc(Cl)c2[nH]ncc2c1 [Example 416, 3-(7-Chloro-1H-indazol-5-yl)-2-(2,2,2-trifluoroethyl)-5-(trifluoromethyl)-3H-imidazo[4,5-b]pyridine]
33 | 3.16 nM | CCC(F)(F)c1nc2ccc(C(F)(F)F)nc2n1-c1cc(C)c2[nH]ncc2c1 [Example 417, 2-(1,1-Difluoropropyl)-3-(7-methyl-1H-indazol-5-yl)-5-(trifluoromethyl)-3H-imidazo[4,5-b]pyridine]
34 | 3.98 nM | Cc1cc(-n2c(CCC(F)(F)F)nc3ccc(C(F)(F)F)nc32)cc2cn[nH]c12 [Example 418, 3-(7-Methyl-1H-indazol-5-yl)-5-(trifluoromethyl)-2-(3,3,3-trifluoropropyl)-3H-imidazo[4,5-b]pyridine]
35 | 0.631 nM | FC(F)(F)c1cnc2c(c1)nc(C(F)(F)F)n2-c1cc(Cl)c2[nH]ncc2c1 [Example 419, 3-(7-Chloro-1H-indazol-5-yl)-2,6-bis(trifluoromethyl)-3H-imidazo[4,5-b]pyridine]
36 | 0.126 nM | Cc1cc(-n2c(C(C)C)cc3cc(F)cnc32)cc2c1NC(=O)C2 [Example 420, 5-(5-Fluoro-2-isopropyl-1H-pyrrolo[2,3-b]pyridin-1-yl)-7-methylindolin-2-one]
37 | 0.0794 nM | Cc1cc(-n2c(C)cc3ccc(C(F)F)nc32)cc2c1NC(=O)C2 [Example 421, 5-(6-(Difluoromethyl)-2-methyl-1H-pyrrolo[2,3-b]pyridin-1-yl)-7-methylindolin-2-one]
38 | 0.316 nM | Cc1cc(-n2c(C=O)cc3ccc(C(F)(F)F)nc32)cc2c1NC(=O)C2 [Example 422, 1-(7-Methyl-2-oxoindolin-5-yl)-6-(trifluoromethyl)-1H-pyrrolo[2,3-b]pyridine-2-carbaldehyde]

Row | Structure (SMILES) | IC50
39 | CC(C)(C)Oc1ccc2cc(-c3ccc(F)cc3)n(-c3ccc4[nH]ccc4c3)c2n1 [Example 386, 6-tert-Butoxy-2-(4-fluorophenyl)-1-(1H-indol-5-yl)pyrrolo[2,3-b]pyridine] | 1580 nM
